± gives the expanded uncertainty stated by the source.
Assay: xn = mol fraction of the nth substance listed
Conditions: 101 kPa, Liquid; for speed of sound: Linear variable-path acoustic interferometer; for mass density: Vibrating tube method; for viscosity: dual vibrating plate viscometer, AandD Co. Ltd Model SV-10

CC[NH+](CC)CC.O=S(=O)([O-])O [triethylammonium hydrogen sulfate] + CN1CCCC1=O
Conditions	mass density [kg/m3]	speed of sound [m/s]	viscosity [mPa·s]
298.15 K, x1 = 0.0115	1032.8 ± 0.61	1575 ± 2	3.39 ± 0.11
298.15 K, x1 = 0.0234	1038.22 ± 0.45	1585 ± 2	4.63 ± 0.1
298.15 K, x1 = 0.0632	1050.09 ± 0.44	1610 ± 2	4.46 ± 0.09
298.15 K, x1 = 0.0927	1059.1 ± 0.43	1627 ± 2	4.81 ± 0.1
298.15 K, x1 = 0.1387	1070.98 ± 0.4	1658 ± 2	4.99 ± 0.11
298.15 K, x1 = 0.2259	1088.61 ± 0.39	1710 ± 2	8.89 ± 0.22
298.15 K, x1 = 0.2631	1094.64 ± 0.38	1734 ± 2	19.46 ± 0.52
298.15 K, x1 = 0.3261	1103.78 ± 0.37	1770 ± 2	40.98 ± 0.96
298.15 K, x1 = 0.4478	1116.87 ± 0.37	1823 ± 2	96.22 ± 2.1
298.15 K, x1 = 0.5947	1127.01 ± 0.37	1871 ± 2	163.18 ± 3.4
298.15 K, x1 = 0.7717	1135 ± 0.37	1893 ± 2	229.32 ± 4.8
298.15 K, x1 = 0.9017	1139.74 ± 0.37	1885 ± 2	245.82 ± 5.1
298.15 K, x1 = 0.9497	1141.23 ± 0.37	1879 ± 2	242.86 ± 5
298.15 K, x1 = 1	1142.89 ± 0.37	1874 ± 2	235 ± 5
303.15 K, x1 = 0.0115	1029.6 ± 0.54	1559 ± 2	1.09 ± 0.06
303.15 K, x1 = 0.0234	1033.96 ± 0.45	1569 ± 2	1.26 ± 0.03
303.15 K, x1 = 0.0632	1046.49 ± 0.44	1594 ± 2	1.97 ± 0.04
303.15 K, x1 = 0.0927	1054.51 ± 0.42	1613 ± 2	1.09 ± 0.03
303.15 K, x1 = 0.1387	1066.39 ± 0.4	1646 ± 2	2.15 ± 0.05
303.15 K, x1 = 0.2259	1084.19 ± 0.39	1699 ± 2	4.28 ± 0.11
303.15 K, x1 = 0.2631	1090.49 ± 0.38	1724 ± 2	8.71 ± 0.27
303.15 K, x1 = 0.3261	1099.54 ± 0.37	1761 ± 2	24.33 ± 0.59
303.15 K, x1 = 0.4478	1112.6 ± 0.37	1818 ± 2	66.28 ± 1.4
303.15 K, x1 = 0.5947	1123.51 ± 0.37	1867 ± 2	119.65 ± 2.5
303.15 K, x1 = 0.7717	1132.09 ± 0.37	1891 ± 2	168.61 ± 3.5
303.15 K, x1 = 0.9017	1137.34 ± 0.37	1886 ± 2	175.33 ± 3.6
303.15 K, x1 = 0.9497	1139.47 ± 0.37	1881 ± 2	168.86 ± 3.5
303.15 K, x1 = 1	1141.83 ± 0.37	1871 ± 2	153 ± 3
308.15 K, x1 = 0.0115	1024.16 ± 0.5	1541 ± 2	1.08 ± 0.04
308.15 K, x1 = 0.0234	1028.44 ± 0.44	1552 ± 2	0.73 ± 0.02
308.15 K, x1 = 0.0632	1040.72 ± 0.43	1574 ± 2	–
308.15 K, x1 = 0.0927	1048.71 ± 0.42	1595 ± 2	–
308.15 K, x1 = 0.1387	1060.66 ± 0.4	1628 ± 2	–
308.15 K, x1 = 0.2259	1078.74 ± 0.39	1682 ± 2	–
308.15 K, x1 = 0.2631	1085.15 ± 0.38	1707 ± 2	7.75 ± 0.29
308.15 K, x1 = 0.3261	1094.3 ± 0.37	1746 ± 2	23.71 ± 0.59
308.15 K, x1 = 0.4478	1107.95 ± 0.37	1806 ± 2	66.53 ± 1.4
308.15 K, x1 = 0.5947	1119.05 ± 0.37	1862 ± 2	116.6 ± 2.4
308.15 K, x1 = 0.7717	1128.8 ± 0.37	1892 ± 2	161.59 ± 3.3
308.15 K, x1 = 0.9017	1135.26 ± 0.37	1887 ± 2	165.14 ± 3.4
308.15 K, x1 = 0.9497	1137.73 ± 0.37	1880 ± 2	156.95 ± 3.2
308.15 K, x1 = 1	1140.72 ± 0.37	1866 ± 2	138 ± 3
313.15 K, x1 = 0.0115	1019.77 ± 0.47	1535 ± 2	1.97 ± 0.05
313.15 K, x1 = 0.0234	1023.04 ± 0.42	1547 ± 2	0.71 ± 0.02
313.15 K, x1 = 0.0632	1034.66 ± 0.43	1573 ± 2	0.73 ± 0.02
313.15 K, x1 = 0.0927	1043.09 ± 0.42	1592 ± 2	0.2 ± 0.01
313.15 K, x1 = 0.1387	1055.07 ± 0.4	1624 ± 2	–
313.15 K, x1 = 0.2259	1072.51 ± 0.39	1681 ± 2	1.97 ± 0.07
313.15 K, x1 = 0.2631	1079.29 ± 0.38	1706 ± 2	7.8 ± 0.26
313.15 K, x1 = 0.3261	1088.65 ± 0.37	1748 ± 2	22.1 ± 0.54
313.15 K, x1 = 0.4478	1102.48 ± 0.37	1809 ± 2	60.67 ± 1.3
313.15 K, x1 = 0.5947	1114.67 ± 0.37	1865 ± 2	104.9 ± 2.2
313.15 K, x1 = 0.7717	1125.81 ± 0.37	1894 ± 2	142.04 ± 2.9
313.15 K, x1 = 0.9017	1133.51 ± 0.37	1884 ± 2	141.04 ± 2.9
313.15 K, x1 = 0.9497	1136.49 ± 0.38	1878 ± 2	131.02 ± 2.7
313.15 K, x1 = 1	1140.02 ± 0.37	1859 ± 2	108 ± 2

CC(=O)O.CCN(CC)CC [triethylammonium acetate] + CN1CCCC1=O
Conditions	mass density [kg/m3]	speed of sound [m/s]	viscosity [mPa·s]
298.15 K, x1 = 0.0138	1026.09 ± 0.3	1564 ± 2	1.61 ± 0.03
298.15 K, x1 = 0.0302	1026.34 ± 0.3	1559 ± 2	1.76 ± 0.04
298.15 K, x1 = 0.0813	1026.88 ± 0.3	1556 ± 2	2.79 ± 0.06
298.15 K, x1 = 0.117	1026.93 ± 0.3	1554 ± 2	3.21 ± 0.07
298.15 K, x1 = 0.1733	1026.39 ± 0.31	1555 ± 2	3.79 ± 0.08
298.15 K, x1 = 0.2751	1023.97 ± 0.3	1560 ± 2	4.02 ± 0.08
298.15 K, x1 = 0.3189	1022.57 ± 0.31	1566 ± 2	3.83 ± 0.08
298.15 K, x1 = 0.3865	1019.96 ± 0.3	1578 ± 2	3.58 ± 0.07
298.15 K, x1 = 0.5133	1015.18 ± 0.3	1603 ± 2	3.4 ± 0.07
298.15 K, x1 = 0.6561	1010.89 ± 0.3	1648 ± 2	4.71 ± 0.1
298.15 K, x1 = 0.8181	1009.29 ± 0.3	1714 ± 2	10.14 ± 0.22
298.15 K, x1 = 0.926	1011.5 ± 0.3	1776 ± 2	17.25 ± 0.36
298.15 K, x1 = 0.9642	1012.97 ± 0.31	1799 ± 2	20.16 ± 0.43
298.15 K, x1 = 1	1015.86 ± 0.31	1840 ± 2	24.12 ± 0.5
303.15 K, x1 = 0.0138	1024.21 ± 0.31	1555 ± 2	1.52 ± 0.03
303.15 K, x1 = 0.0302	1024.48 ± 0.3	1555 ± 2	1.84 ± 0.04
303.15 K, x1 = 0.0813	1024.64 ± 0.3	1553 ± 2	2.67 ± 0.06
303.15 K, x1 = 0.117	1024.37 ± 0.31	1554 ± 2	3.1 ± 0.06
303.15 K, x1 = 0.1733	1023.53 ± 0.31	1555 ± 2	3.42 ± 0.07
303.15 K, x1 = 0.2751	1020.86 ± 0.31	1561 ± 2	3.62 ± 0.07
303.15 K, x1 = 0.3189	1019.42 ± 0.31	1566 ± 2	3.55 ± 0.07
303.15 K, x1 = 0.3865	1016.89 ± 0.3	1579 ± 2	3.18 ± 0.07
303.15 K, x1 = 0.5133	1012.16 ± 0.3	1602 ± 2	2.7 ± 0.06
303.15 K, x1 = 0.6561	1007.69 ± 0.3	1645 ± 2	3.42 ± 0.07
303.15 K, x1 = 0.8181	1005.54 ± 0.3	1713 ± 2	8.21 ± 0.17
303.15 K, x1 = 0.926	1006.58 ± 0.3	1769 ± 2	14.2 ± 0.3
303.15 K, x1 = 0.9642	1007.74 ± 0.3	1797 ± 2	17 ± 0.36
303.15 K, x1 = 1	1009.58 ± 0.3	1824 ± 2	19.6 ± 0.41
308.15 K, x1 = 0.0138	1020.18 ± 0.31	1530 ± 2	1.5 ± 0.03
308.15 K, x1 = 0.0302	1020.47 ± 0.3	1533 ± 2	1.81 ± 0.04
308.15 K, x1 = 0.0813	1020.35 ± 0.3	1536 ± 2	2.61 ± 0.06
308.15 K, x1 = 0.117	1019.88 ± 0.3	1539 ± 2	3.03 ± 0.06
308.15 K, x1 = 0.1733	1018.8 ± 0.3	1544 ± 2	3.36 ± 0.07
308.15 K, x1 = 0.2751	1015.91 ± 0.3	1553 ± 2	3.28 ± 0.07
308.15 K, x1 = 0.3189	1014.49 ± 0.3	1559 ± 2	3.14 ± 0.07
308.15 K, x1 = 0.3865	1011.99 ± 0.3	1572 ± 2	2.59 ± 0.05
308.15 K, x1 = 0.5133	1007.46 ± 0.3	1593 ± 2	2.51 ± 0.05
308.15 K, x1 = 0.6561	1003.25 ± 0.29	1632 ± 2	3.1 ± 0.07
308.15 K, x1 = 0.8181	1000.89 ± 0.29	1698 ± 2	7.76 ± 0.16
308.15 K, x1 = 0.926	1001.01 ± 0.29	1753 ± 2	13.1 ± 0.27
308.15 K, x1 = 0.9642	1001.75 ± 0.29	1776 ± 2	14.98 ± 0.31
308.15 K, x1 = 1	1002.61 ± 0.29	1798 ± 2	16.13 ± 0.33
313.15 K, x1 = 0.0138	1015.8 ± 0.31	1525 ± 2	1.47 ± 0.03
313.15 K, x1 = 0.0302	1016.2 ± 0.3	1527 ± 2	1.72 ± 0.04
313.15 K, x1 = 0.0813	1016.66 ± 0.3	1529 ± 2	2.3 ± 0.05
313.15 K, x1 = 0.117	1016.4 ± 0.3	1530 ± 2	2.78 ± 0.06
313.15 K, x1 = 0.1733	1015.69 ± 0.3	1535 ± 2	3.04 ± 0.06
313.15 K, x1 = 0.2751	1013.39 ± 0.3	1543 ± 2	2.98 ± 0.06
313.15 K, x1 = 0.3189	1012.13 ± 0.3	1548 ± 2	2.83 ± 0.06
313.15 K, x1 = 0.3865	1010.15 ± 0.3	1561 ± 2	2.38 ± 0.05
313.15 K, x1 = 0.5133	1006.1 ± 0.29	1582 ± 2	2.34 ± 0.05
313.15 K, x1 = 0.6561	1002.5 ± 0.29	1616 ± 2	3.01 ± 0.06
313.15 K, x1 = 0.8181	1000.41 ± 0.29	1669 ± 2	7.08 ± 0.15
313.15 K, x1 = 0.926	1000.32 ± 0.29	1716 ± 2	11.65 ± 0.24
313.15 K, x1 = 0.9642	1000.61 ± 0.29	1735 ± 2	13.39 ± 0.28
313.15 K, x1 = 1	1000.97 ± 0.29	1752 ± 2	14.81 ± 0.31

Source: the NIST ThermoML archive (doi:10.1016/j.jct.2012.03.034)
